Reference: US20230080819A1, “HERBICIDE COMBINATIONS COMPRISING GLUFOSINATE AND TIAFENACIL” (BASF SE, priority 2020, published 2023)

Assays:
Assay type in all cases: in vivo
Settings in all cases: 20 DAT
[1] = test system: Amaranthus Palmeri (AMAPA); experiment: Greenhouse post-emergence weed control, Palmer Amaranth
[2] = test system: Galium aparine (GALAP); experiment: Greenhouse post-emergence weed control, Cleavers
[3] = test system: Amaranthus tuberculatus (AMATU); experiment: Greenhouse post-emergence weed control, waterhemp
[4] = test system: Echinochloa crus-galli (ECHCG); experiment: Greenhouse post-emergence weed control, barnyardgrass

Structure (SMILES)	Solo % activity ([1]; Glufosinate 100 g ai/ha solo)	Solo % activity ([1]; Glufosinate 200 g ai/ha solo)	Solo % activity ([2]; Glufosinate 100 g ai/ha solo)	Solo % activity ([3]; Glufosinate 50 g ai/ha solo, post-emergence, AMATU, 1% MSO)	Solo % activity ([3]; Glufosinate 100 g ai/ha solo, AMATU)	Solo % activity ([3]; Glufosinate 200 g ai/ha solo, AMATU)	Solo % activity ([4]; Glufosinate 50 g ai/ha solo, ECHCG)	Solo % activity ([4]; Glufosinate 100 g ai/ha solo, ECHCG)	Solo % activity ([1]; Tiafenacil 0.15 g ai/ha solo)	Solo % activity ([1]; Tiafenacil 1.5 g ai/ha solo)	Solo % activity ([2]; Tiafenacil 0.5 g ai/ha solo)	Solo % activity ([3]; Tiafenacil 1.5 g ai/ha solo, AMATU (Table 2))	Solo % activity ([3]; Tiafenacil 1.5 g ai/ha solo, AMATU (Table 5))	Solo % activity ([3]; Tiafenacil 1.5 g ai/ha solo, post-emergence, AMATU, 1% MSO)	Solo % activity ([4]; Tiafenacil 0.5 g ai/ha solo, ECHCG (Table 3))	Solo % activity ([4]; Tiafenacil 0.5 g ai/ha solo, ECHCG (Table 7))
CP(=O)(O)CCC(N)C(=O)O (racemic) [Glufosinate, (2RS)-2-amino-4-[hydroxy(methyl)phosphinoyl]butyric acid]	25%	75%	60%	10%	10%	70%	10%	25%								
COC(=O)CCNC(=O)C(C)Sc1cc(-n2c(=O)cc(C(F)(F)F)n(C)c2=O)c(F)cc1Cl (stereo not shown) [Tiafenacil, tiafenacil]									0%	25%	0%	15%	15%	15%	10%	10%
